As usually defined, the Ki is a dissociation constant, usually derived from enzyme kinetics or from competition with a known ligand. A high value points to lower affinity.

The text below walks through data of BindingDB's records for doi:10.1046/j.1471-4159.1998.70062252.x (Paris-Sud University, 1998).

In the test the target is 5-hydroxytryptamine receptor 4 (Homo sapiens, UniProt Q13639).

Several values for one entry are separate records, joined by “and”; a condition that tells them apart may be missing. Identical values can stand only once. A value given as a limit tells only on which side of the number the result lay.

Sequence of 5-hydroxytryptamine receptor 4 (Q13639 whole entry): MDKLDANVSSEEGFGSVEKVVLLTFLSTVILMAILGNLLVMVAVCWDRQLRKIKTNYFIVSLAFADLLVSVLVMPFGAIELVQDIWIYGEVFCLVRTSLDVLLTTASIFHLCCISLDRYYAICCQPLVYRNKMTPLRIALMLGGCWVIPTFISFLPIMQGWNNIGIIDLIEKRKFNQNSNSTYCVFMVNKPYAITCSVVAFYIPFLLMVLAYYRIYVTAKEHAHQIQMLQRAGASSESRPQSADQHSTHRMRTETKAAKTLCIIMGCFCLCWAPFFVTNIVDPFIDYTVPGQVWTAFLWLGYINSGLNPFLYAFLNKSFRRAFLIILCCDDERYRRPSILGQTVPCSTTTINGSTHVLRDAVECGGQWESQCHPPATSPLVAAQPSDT

As for `CCn1c(=O)n(C(=O)NC2CC3CCC(C2)N3C)c2ccccc21` (stereo not drawn) [BIMU 1], the Ki is 373 nM and 123 nM and 66 nM and 38.8 nM.
As for `Cn1cc(C(=O)OCC2CCN(CCNS(C)(=O)=O)CC2)c2ccccc21` [GR 113808], the inhibition constant Ki amounted to 0.07 nM.
In turn, `COc1cc(N)c(Cl)cc1C(=O)NC1CN2CCC1CC2` (stereo not drawn) [ZACOPRIDE,R] had a Ki of more than 10000 nM.
